# Assay results from US12617797B2, “Substituted pyrazolo [1,5-a]pyrimidines having multimodal activity against pain” (ESTEVE PHARMACEUTICALS, S.A., priority 2020, dated 2026).
# Columns and labels:
# Human σ1 receptor = target: T1, Human σ1 receptor (Homo sapiens, UniProt Q99720); assay: Human σ1 receptor radioligand assay ([3H](+)-pentazocine binding, transfected HEK-293 membranes); details: binding to σ1 receptor expressed as Ki; + also covers inhibition between 1% and 50%; read-out: σ-1 binding
# T1 construct: expressed in transfected cells; host or cells: HEK-293
# Description: Human σ1 Receptor Radioligand Assay
# Transfected HEK-293 membranes (7 μg) were incubated with 5 nM of [^3H](+)-pentazocine in assay buffer containing Tris-HCl 50 mM at pH 8. NBS (non-specific binding) was measured by adding 10 μM haloperidol. The binding of the test compound was measured at either one concentration (% inhibition at 1 or 10 μM) or five different concentrations to determine affinity values (Ki). Plates were incubated at 37° C. for 120 minutes. After the incubation period, the reaction mix was then transferred to MultiScreen HTS, FC plates (Millipore), filtered and plates were washed 3 times with ice-cold 10 mM Tris-HCL (pH7.4). Filters were dried and counted at approximately 40% efficiency in a MicroBeta scintillation counter (Perkin-Elmer) using EcoScint liquid scintillation cocktail.
# [1] = target: Human α2δ-1 subunit of Cav2.2 calcium channel (Homo sapiens, UniProt P54289); assay: Human α2δ-1 subunit of Cav2.2 calcium channel assay ([3H]-gabapentin binding); details: binding to the α2δ-1 subunit of voltage-gated calcium channels expressed as Ki; + also covers inhibition between 1% and 50%
# Description: Biological Activity Pharmacological Study Human α2δ-1 Subunit of Cav2.2 Calcium Channel Assay
# Human α2δ-1 enriched membranes (2.5 μg) were incubated with 15 nM of radiolabeled [^3H]-Gabapentin in assay buffer containing Hepes-KOH 10 mM, pH 7.4. NSB (non specific binding) was measured by adding 10 μM pregabalin. The binding of the test compound was measured at either one concentration (% inhibition at 1 or 10 μM) or five different concentrations to determine affinity values (Ki). After 60 min incubation at 27° C., binding reaction was terminated by filtering through Multiscreen GF/C (Millipore) presoaked in 0.5% polyethyleneimine in Vacuum Manifold Station, followed by 3 washes with ice-cold filtration buffer containing 50 mM Tris-HCl, pH 7.4. Filter plates were dried at 60° C. for 1 h and 30 μL of scintillation cocktail were added to each well before radioactivity reading. Readings were performed in a Trilux 1450 Microbeta radioactive counter (Perkin Elmer).
# T1 sequence (Q99720 whole entry): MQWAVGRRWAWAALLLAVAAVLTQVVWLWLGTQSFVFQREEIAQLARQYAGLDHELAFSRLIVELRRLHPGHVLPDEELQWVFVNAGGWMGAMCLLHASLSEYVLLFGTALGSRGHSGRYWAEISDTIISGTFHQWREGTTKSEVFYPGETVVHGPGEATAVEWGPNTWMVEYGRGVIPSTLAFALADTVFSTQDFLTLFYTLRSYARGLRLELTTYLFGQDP
# Human α2δ-1 subunit of Cav2.2 calcium channel, sequence (P54289 25-1103): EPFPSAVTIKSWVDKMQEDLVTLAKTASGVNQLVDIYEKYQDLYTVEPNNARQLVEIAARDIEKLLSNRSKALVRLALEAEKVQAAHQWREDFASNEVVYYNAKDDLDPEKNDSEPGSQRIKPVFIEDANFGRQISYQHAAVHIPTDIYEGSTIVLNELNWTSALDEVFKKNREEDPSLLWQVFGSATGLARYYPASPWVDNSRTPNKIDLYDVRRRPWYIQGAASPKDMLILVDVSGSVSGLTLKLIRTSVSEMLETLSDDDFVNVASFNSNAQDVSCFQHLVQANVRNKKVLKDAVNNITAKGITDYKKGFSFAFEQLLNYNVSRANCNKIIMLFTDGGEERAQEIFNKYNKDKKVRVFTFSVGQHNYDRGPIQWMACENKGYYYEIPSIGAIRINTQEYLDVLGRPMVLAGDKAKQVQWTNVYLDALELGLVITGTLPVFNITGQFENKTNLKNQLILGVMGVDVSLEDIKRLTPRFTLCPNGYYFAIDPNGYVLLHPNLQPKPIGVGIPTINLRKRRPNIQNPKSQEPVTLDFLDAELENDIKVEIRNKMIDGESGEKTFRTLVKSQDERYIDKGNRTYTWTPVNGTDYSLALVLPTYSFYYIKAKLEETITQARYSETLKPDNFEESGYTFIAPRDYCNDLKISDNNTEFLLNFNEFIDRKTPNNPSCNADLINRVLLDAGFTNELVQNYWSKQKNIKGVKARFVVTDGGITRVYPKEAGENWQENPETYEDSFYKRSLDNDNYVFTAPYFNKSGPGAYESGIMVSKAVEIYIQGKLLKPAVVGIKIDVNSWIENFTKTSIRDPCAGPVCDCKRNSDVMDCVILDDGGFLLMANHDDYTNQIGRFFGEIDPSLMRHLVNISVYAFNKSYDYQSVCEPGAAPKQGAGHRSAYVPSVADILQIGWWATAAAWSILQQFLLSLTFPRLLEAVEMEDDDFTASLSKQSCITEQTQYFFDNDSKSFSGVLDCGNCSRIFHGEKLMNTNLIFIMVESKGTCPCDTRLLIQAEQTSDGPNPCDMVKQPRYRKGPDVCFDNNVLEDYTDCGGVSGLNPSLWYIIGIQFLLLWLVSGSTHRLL
Ki (Human σ1 receptor) [nM],Ki [1] [nM],SMILES
< 500,> 5000,"Cc1nn2c(C3CCCN(Cc4ccc(Cl)cc4)C3)ccnc2c1CNCC1CCOC1 (racemic) [Example 201, (+/−)-1-(7-((R/S)-1-(4-Chlorobenzyl)piperidin-3-yl)-2-methylpyrazolo[1,5-a]pyrimidin-3-yl)-N—(((S/R)-tetrahydrofuran-3-yl)methyl)methanamine]"
< 500,< 500,"Cc1nn2c([C@@H]3CCCN(Cc4ccc(Cl)cc4)C3)ccnc2c1CNC[C@@H]1CCOC(C)(C)C1 (racemic) [Example 221, (+/−)-1-(7-((R/S)-1-(4-Chlorobenzyl)piperidin-3-yl)-2-methylpyrazolo[1,5-a]pyrimidin-3-yl)-N—(((R/S)-2,2-dimethyltetrahydro-2H-pyran-4-yl)methyl)methanamine]"
< 500,500 to 5000,"Cc1nn2c([C@@H]3CCCN(Cc4ccc(Cl)cc4)C3)ccnc2c1CN[C@H](C)C1CCOCC1 (racemic) [Example 224, (+/−)-(R/S)—N-((7-((R/S)-1-(4-Chlorobenzyl)piperidin-3-yl)-2-methylpyrazolo[1,5-a]pyrimidin-3-yl)methyl)-1-(tetrahydro-2H-pyran-4-yl)ethan-1-amine]"
500 to 1000,500 to 5000,"Cc1cc2nccc(C3CCCN(Cc4ccccc4)C3)n2n1 (stereo not shown) [Example 3, 7-(1-Benzylpiperidin-3-yl)-2-methylpyrazolo[1,5-a]pyrimidine]"
< 500,500 to 5000,"CCc1cc2nccc(C3CCCN(Cc4ccccc4)C3)n2n1 (stereo not shown) [Example 4, 7-(1-Benzylpiperidin-3-yl)-2-ethylpyrazolo[1,5-a]pyrimidine]"
> 1000,> 5000,"CC(=O)Nc1c(C)nn2c(C3CCCN(Cc4ccccc4)C3)ccnc12 (stereo not shown) [Example 8, N-(7-(1-Benzylpiperidin-3-yl)-2-methylpyrazolo[1,5-a]pyrimidin-3-yl)acetamide]"
> 1000,> 5000,"CC(=O)Nc1nn2c(C3CCCN(Cc4ccccc4)C3)ccnc2c1C (stereo not shown) [Example 9, N-(7-(1-Benzylpiperidin-3-yl)-3-methylpyrazolo[1,5-a]pyrimidin-2-yl)acetamide]"
< 500,500 to 5000,"Cc1nn2c(C3CCCN(Cc4ccccc4)C3)ccnc2c1Br (stereo not shown) [Example 10, 7-(1-Benzylpiperidin-3-yl)-3-bromo-2-methylpyrazolo[1,5-a]pyrimidine]"
< 500,500 to 5000,"CCc1nn2c(C3CCCN(Cc4ccccc4)C3)ccnc2c1Br (stereo not shown) [Example 11, 7-(1-Benzylpiperidin-3-yl)-3-bromo-2-ethylpyrazolo[1,5-a]pyrimidine]"
> 1000,> 5000,"Clc1ccc(-c2cc3nccc(C4CCCN(Cc5ccccc5)C4)n3n2)cc1 (stereo not shown) [Example 15, 7-(1-Benzylpiperidin-3-yl)-2-(4-chlorophenyl)pyrazolo[1,5-a]pyrimidine]"
–,> 5000,"CC(=O)N1CCC(CNCc2c(Cl)nn3c([C@@H]4CCCN(Cc5ccccc5)C4)ccnc23)CC1 [Example 217, (R)-1-(4-((((7-(1-benzylpiperidin-3-yl)-2-chloropyrazolo[1,5-a]pyrimidin-3-yl)methyl)amino)methyl)piperidin-1-yl)ethan-1-one]"

# Second part, the compound before the results:
SMILES,Ki (Human σ1 receptor) [nM],Ki [1] [nM]
"Brc1cc2nccc(C3CCCN(Cc4ccccc4)C3)n2n1 (stereo not shown) [Example 1, 7-(1-Benzylpiperidin-3-yl)-2-bromopyrazolo[1,5-a]pyrimidine]",500 to 1000,500 to 5000
"c1ccc(CN2CCCC(c3ccnc4ccnn34)C2)cc1 (stereo not shown) [Example 2, 7-(1-Benzylpiperidin-3-yl)pyrazolo[1,5-a]pyrimidine]",> 1000,500 to 5000
"Brc1cnn2c(C3CCCN(Cc4ccccc4)C3)ccnc12 (stereo not shown) [Example 5, 7-(1-Benzylpiperidin-3-yl)-3-bromopyrazolo[1,5-a]pyrimidine]",< 500,500 to 5000
"Cc1cnc2c(Br)c(C)nn2c1C1CCCN(Cc2ccccc2)C1 (stereo not shown) [Example 6, 7-(1-Benzylpiperidin-3-yl)-3-bromo-2,6-dimethylpyrazolo[1,5-a]pyrimidine]",> 1000,500 to 5000
"Cc1cnc2c(Br)cnn2c1C1CCCN(Cc2ccccc2)C1 (stereo not shown) [Example 7, 7-(1-Benzylpiperidin-3-yl)-3-bromo-6-methylpyrazolo[1,5-a]pyrimidine]",> 1000,> 5000
"c1ccc(CN2CCCC(c3ccnc4cc(-c5ccccc5)nn34)C2)cc1 (stereo not shown) [Example 12, 7-(1-Benzylpiperidin-3-yl)-2-phenylpyrazolo[1,5-a]pyrimidine]",500 to 1000,> 5000
"CCOc1ccc(-c2cc3nccc(C4CCCN(Cc5ccccc5)C4)n3n2)cc1 (stereo not shown) [Example 13, 7-(1-Benzylpiperidin-3-yl)-2-(4-ethoxyphenyl)pyrazolo[1,5-a]pyrimidine]",> 1000,> 5000
"Fc1ccccc1-c1cc2nccc(C3CCCN(Cc4ccccc4)C3)n2n1 (stereo not shown) [Example 14, 7-(1-Benzylpiperidin-3-yl)-2-(2-fluorophenyl)pyrazolo[1,5-a]pyrimidine]",500 to 1000,500 to 5000
"c1ccc(CN2CCCC(c3ccnc4cc(-c5ccncc5)nn34)C2)cc1 (stereo not shown) [Example 16, 7-(1-Benzylpiperidin-3-yl)-2-(pyridin-4-yl)pyrazolo[1,5-a]pyrimidine]",> 1000,500 to 5000
"c1ccc(CN2CCCC(c3ccnc4cc(-c5cccnc5)nn34)C2)cc1 (stereo not shown) [Example 17, 7-(1-Benzylpiperidin-3-yl)-2-(pyridin-3-yl)pyrazolo[1,5-a]pyrimidine]",500 to 1000,500 to 5000
"Clc1cncc(Cl)c1-c1cc2nccc(C3CCCN(Cc4ccccc4)C3)n2n1 (stereo not shown) [Example 18, 7-(1-Benzylpiperidin-3-yl)-2-(3,5-dichloropyridin-4-yl)pyrazolo[1,5-a]pyrimidine]",500 to 1000,500 to 5000
"c1ccc(CN2CCCC(c3ccnc4cc(-c5cccs5)nn34)C2)cc1 (stereo not shown) [Example 19, 7-(1-Benzylpiperidin-3-yl)-2-(thiophen-2-yl)pyrazolo[1,5-a]pyrimidine]",> 1000,500 to 5000
"c1ccc(CN2CCCC(c3ccnc4cc(-c5cnsc5)nn34)C2)cc1 (stereo not shown) [Example 20, 4-(7-(1-Benzylpiperidin-3-yl)pyrazolo[1,5-a]pyrimidin-2-yl)isothiazole]",> 1000,500 to 5000
"Cn1cncc1-c1cc2nccc(C3CCCN(Cc4ccccc4)C3)n2n1 (stereo not shown) [Example 21, 7-(1-Benzylpiperidin-3-yl)-2-(1-methyl-1H-imidazol-5-yl)pyrazolo[1,5-a]pyrimidine]",> 1000,500 to 5000
"CN(C)c1ccc(-c2cc3nccc(C4CCCN(Cc5ccccc5)C4)n3n2)cc1 (stereo not shown) [Example 22, 4-(7-(1-Benzylpiperidin-3-yl)pyrazolo[1,5-a]pyrimidin-2-yl)-N,N-dimethylaniline]",> 1000,500 to 5000
"c1ccc(CN2CCCC(c3ccnc4cc(-c5cncnc5)nn34)C2)cc1 (stereo not shown) [Example 23, 7-(1-Benzylpiperidin-3-yl)-2-(pyrimidin-5-yl)pyrazolo[1,5-a]pyrimidine]",> 1000,500 to 5000
"Nc1ccc(-c2cc3nccc(C4CCCN(Cc5ccccc5)C4)n3n2)cn1 (stereo not shown) [Example 24, 5-(7-(1-Benzylpiperidin-3-yl)pyrazolo[1,5-a]pyrimidin-2-yl)pyridin-2-amine]",> 1000,500 to 5000
"Cn1cc(-c2cc3nccc(C4CCCN(Cc5ccccc5)C4)n3n2)cn1 (stereo not shown) [Example 25, 7-(1-Benzylpiperidin-3-yl)-2-(1-methyl-1H-pyrazol-4-yl)pyrazolo[1,5-a]pyrimidine]",> 1000,> 5000
"c1ccc(CN2CCCC(c3ccnc4cc(-c5ccccn5)nn34)C2)cc1 (stereo not shown) [Example 26, 7-(1-Benzylpiperidin-3-yl)-2-(pyridin-2-yl)pyrazolo[1,5-a]pyrimidine]",> 1000,< 500
"COc1ncccc1-c1cc2nccc(C3CCCN(Cc4ccccc4)C3)n2n1 (stereo not shown) [Example 27, 7-(1-Benzylpiperidin-3-yl)-2-(2-methoxypyridin-3-yl)pyrazolo[1,5-a]pyrimidine]",500 to 1000,500 to 5000
"COc1ccc(-c2cc3nccc(C4CCCN(Cc5ccccc5)C4)n3n2)cn1 (stereo not shown) [Example 28, 7-(1-Benzylpiperidin-3-yl)-2-(6-methoxypyridin-3-yl)pyrazolo[1,5-a]pyrimidine]",> 1000,500 to 5000
"COc1ccccc1-c1cc2nccc(C3CCCN(Cc4ccccc4)C3)n2n1 (stereo not shown) [Example 29, 7-(1-Benzylpiperidin-3-yl)-2-(2-methoxyphenyl)pyrazolo[1,5-a]pyrimidine]",> 1000,500 to 5000
"COc1cccc(-c2cc3nccc(C4CCCN(Cc5ccccc5)C4)n3n2)n1 (stereo not shown) [Example 30, 7-(1-Benzylpiperidin-3-yl)-2-(6-methoxypyridin-2-yl)pyrazolo[1,5-a]pyrimidine]",> 1000,> 5000
